Consider twelve compounds from patent publication US10689354B2, “Aminoazole derivative” (Teijin Pharma Limited, priority 2015, dated 2020).

Experiment [1] has as its target T1, androgen receptor (AR-LBD) (Rattus norvegicus, UniProt P15207).
T1 construct: 5 μL of 2×AR-LBD/Fluoromone AL Red Complex contained in the kit; purchased Invitrogen
T1 sequence (P15207 651-882 limits assumed): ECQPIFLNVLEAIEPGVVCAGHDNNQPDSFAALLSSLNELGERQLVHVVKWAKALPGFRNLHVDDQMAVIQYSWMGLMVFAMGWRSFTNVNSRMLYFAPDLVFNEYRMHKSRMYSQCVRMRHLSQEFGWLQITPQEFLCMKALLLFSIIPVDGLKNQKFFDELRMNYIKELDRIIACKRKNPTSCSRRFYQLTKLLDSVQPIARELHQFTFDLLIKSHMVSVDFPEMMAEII
In words: Evaluation of androgen receptor affinity (PolarScreen Androgen Receptor Competitor Assay Kit, Red; fluorescence polarization). Conditions: 22° C. for 5 hours, relative to binding rate of 1 μM DHT, read-out: AR affinity (pEC50) (converted). In a few lines: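 Duplicate wells; compound plus AR-LBD tracer complex incubated 22° C for 5 h, then FP measured. Effect compared with 1 μM DHT; 50%-effect concentration expressed as pEC50.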

For the next experiment, the target named is T2, human androgen receptor (Homo sapiens, UniProt P10275).
T2 construct: expressed in transfected cells; host or cells: HEK293
T2 sequence (P10275 1-920): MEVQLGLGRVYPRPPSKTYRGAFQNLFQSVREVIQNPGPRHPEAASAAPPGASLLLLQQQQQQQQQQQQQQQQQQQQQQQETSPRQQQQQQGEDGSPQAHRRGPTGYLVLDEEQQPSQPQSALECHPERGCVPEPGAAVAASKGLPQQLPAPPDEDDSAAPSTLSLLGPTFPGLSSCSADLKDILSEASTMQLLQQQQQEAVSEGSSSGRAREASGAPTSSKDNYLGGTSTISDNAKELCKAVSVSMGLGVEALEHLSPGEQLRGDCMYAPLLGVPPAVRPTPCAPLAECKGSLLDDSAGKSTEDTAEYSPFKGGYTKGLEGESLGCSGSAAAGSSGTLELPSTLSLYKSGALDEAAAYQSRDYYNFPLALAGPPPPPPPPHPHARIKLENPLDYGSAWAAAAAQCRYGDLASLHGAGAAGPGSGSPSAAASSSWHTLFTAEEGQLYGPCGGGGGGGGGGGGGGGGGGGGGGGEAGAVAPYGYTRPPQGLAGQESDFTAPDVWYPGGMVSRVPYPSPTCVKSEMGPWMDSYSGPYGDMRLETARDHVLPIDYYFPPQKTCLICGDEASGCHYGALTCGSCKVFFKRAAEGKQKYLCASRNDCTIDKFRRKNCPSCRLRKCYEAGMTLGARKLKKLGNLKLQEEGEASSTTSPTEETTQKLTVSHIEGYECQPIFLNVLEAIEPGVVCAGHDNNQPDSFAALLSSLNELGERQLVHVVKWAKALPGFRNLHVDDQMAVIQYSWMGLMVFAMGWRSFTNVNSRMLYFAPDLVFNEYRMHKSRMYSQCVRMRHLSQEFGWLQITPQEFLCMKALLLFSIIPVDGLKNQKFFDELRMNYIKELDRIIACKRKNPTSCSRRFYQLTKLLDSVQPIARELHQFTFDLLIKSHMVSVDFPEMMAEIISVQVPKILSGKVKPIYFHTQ
Kind of experiment: Reporter assay of an androgen receptor responsive sequence (luciferase, transiently transfected HEK293 cells). Type of experiment: cell-based. To be noted: 24 hours incubation, relative to activity of 100 nM DHT, read-out: AR transcriptive activity (pEC50) (converted). A digest of the protocol: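 Agonism scored as pEC50, fitted by 4-parameter curve against the response to 100 nM DHT, from dual-luciferase readout after 24 h compound treatment. Cells were HEK293 co-transfected (3 h) with human AR expression vector, androgen-responsive firefly reporter and Renilla control, in charcoal-stripped serum.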

Bounds are passed on as bounds.

On to `Cc1sc(N(CCc2ccccc2O)c2ccc(C#N)cc2)nc1C(=O)NS(C)(=O)=O` [Compound 379, 2-[4-cyano-N-[2-(2-hydroxyphenyl)ethyl]anilino]-5-methyl-N-methylsulfonyl-thiazole-4-carboxamide], for which the EC50 in experiment [1] was 25.1 nM; on human androgen receptor it was 251 nM.
In the case of `CCc1oc(N(CC[C@@H]2CCCC[C@H]2O)c2ccc(C#N)cc2)nc1C(=O)NS(C)(=O)=O` (racemic) [Compound 629, 2-[4-cyano-N-[2-[trans-2-hydroxycyclohexyl]ethyl]anilino]-5-ethyl-N-methylsulfonyl-oxazole-4-carboxamide], the EC50 is 316 nM in experiment [1] and 2510 nM on human androgen receptor.
Taken in the same sequence, the figures for `Cc1sc(N(Cc2ccc(C(F)(F)F)c(C#N)c2)c2ccc(C#N)cc2)nc1C(=O)NS(C)(=O)=O` [Example 187, 2-[4-cyano-N-[[3-cyano-4-(trifluoromethyl)phenyl]methyl]anilino]-5-methyl-N-methylsulfonyl-thiazole-4-carboxamide] were 63.1 nM and 79.4 nM.
For `CS(=O)(=O)NC(=O)c1nc(N(Cc2ccccc2)c2ccc(C#N)cc2)sc1C(F)F` [Example 284, 2-(N-benzyl-4-cyano-anilino)-5-(difluoromethyl)-N-methylsulfonyl-thiazole-4-carboxamide], the EC50 is 126 nM in experiment [1] and greater than 10000 nM on human androgen receptor.
Taken in the same sequence, the figures for `Cc1sc(N(Cc2cc3ccccc3s2)c2ccc(C#N)cc2)nc1C(=O)NS(C)(=O)=O` [Compound 51, 2-[N-(benzothiophen-2-ylmethyl)-4-cyano-anilino]-5-methyl-N-methylsulfonyl-thiazole-4-carboxamide] were 50.1 nM and 31.6 nM.
`Cc1sc(N(Cc2ccc3occc3c2)c2ccc(C#N)cc2)nc1C(=O)NS(C)(=O)=O` [Compound 26, 2-[N-(benzofuran-5-ylmethyl)-4-cyano-anilino]-5-methyl-N-methylsulfonyl-thiazole-4-carboxamide]: the EC50 was 63.1 nM in experiment [1] and 25.1 nM on human androgen receptor.
As to `Cc1sc(N(Cc2ccccc2)c2ccc(C#N)cc2)nc1C(=O)NS(=O)(=O)Cc1cccc(Cl)c1` [Compound 386, 2-(N-benzyl-4-cyano-anilino)-N-[(3-chlorophenyl)methylsulfonyl]-5-methyl-thiazole-4-carboxamide], the EC50 is 126 nM in experiment [1] and greater than 10000 nM at human androgen receptor.
With `CS(=O)(=O)NC(=O)c1nc(N(Cc2ccc(Cl)cn2)c2ccc(C#N)cc2)sc1C1CC1` [Compound 658, 2-[N-[(5-chloro-2-pyridyl)methyl]-4-cyano-anilino]-5-cyclopropyl-N-methylsulfonyl-thiazole-4-carboxamide], the figures for the EC50 (in experiment [1]; at human androgen receptor) were 100 nM and 5010 nM, respectively.
Take `Cc1sc(N(Cc2ccc(OC(F)(F)F)cc2)c2ccc(C#N)cc2)nc1C(=O)NS(=O)(=O)CS(C)(=O)=O` [Example 198, 2-[4-cyano-N-[[4-(trifluoromethoxy)phenyl]methyl]anilino]-5-methyl-N-(methylsulfonylmethylsulfonyl)thiazole-4-carboxamide]: the EC50 in experiment [1] was 39.8 nM; at human androgen receptor, greater than 10000 nM.
The corresponding values for `CS(=O)(=O)NC(=O)c1nc(N(Cc2cccc(OC(F)F)c2)c2ccc(C#N)cc2)sc1Cl` [Example 276, 5-chloro-2-[4-cyano-N-[[3-(difluoromethoxy)phenyl]methyl]anilino]-N-methylsulfonyl-thiazole-4-carboxamide] are 50.1 nM and 126 nM.
The corresponding values for `Cc1sc(N(CCc2ccc(Cl)cc2)Cc2cccc(Cl)c2)nc1C(=O)NS(C)(=O)=O` [Compound 144, 2-[2-(4-chlorophenyl)ethyl-[(3-chlorophenyl)methyl]amino]-5-methyl-N-methylsulfonyl-thiazole-4-carboxamide] are 25.1 nM and 63.1 nM.
Taken in the same sequence, the figures for `Cc1sc(N(Cc2cccc(N)c2)c2ccc(C#N)cc2)nc1C(=O)NS(C)(=O)=O` [Example 203, 2-[N-[(3-aminophenyl)methyl]-4-cyano-anilino]-5-methyl-N-methylsulfonyl-thiazole-4-carboxamide] were 316 nM and 631 nM.
